Test results taken from CN101016265A, “一种新型hiv-1逆转录酶抑制剂的制备及其用途” (Capital Medical University, priority 2007, dated 2007).

Molecular target: T1, HIV-1 reverse transcriptase (HIV-1逆转录酶) (Human immunodeficiency virus type 1 group M subtype B, UniProt P03366)
T1 construct: HIV-1逆转录酶HIV-1 RT为基因工程重组酶
Assay: HIV-1 RT activity assay (oligo(dT)15-coated 96-well plate, poly(A) template, biotin-11-dUTP / SA-ALP / PNPP, 405 nm)
Assay type: biochemical
Conditions: relative to nevirapine (NVP); range stated for the six compounds together

SMILES | activity higher than that of nevirapine (NVP)
O=c1[nH]c(=O)n(COCc2ccccc2)c(Cc2ccccc2)c1I [化合物5, 1-苄氧甲基-5-碘-6-苄基尿嘧啶] | 3.6-627 fold
O=c1[nH]c(=O)n(COCc2ccccc2)c(Cc2ccccc2)c1Br [化合物6, 1-苄氧甲基-5-溴-6-苄基尿嘧啶] | 3.6-627 fold
CN(C)c1c(Cc2ccccc2)n(COCc2ccccc2)c(=O)[nH]c1=O [化合物7, 1-苄氧甲基-5-N,N-二甲基氨基-6-苄基尿嘧啶] | 3.6-627 fold
CCOCn1c(Cc2ccccc2)c(I)c(=O)[nH]c1=O [化合物8, 1-乙氧甲基-5-碘-6-苄基尿嘧啶] | 3.6-627 fold
CCOCn1c(Cc2ccccc2)c(Br)c(=O)[nH]c1=O [化合物9, 1-乙氧甲基-5-溴-6-苄基尿嘧啶] | 3.6-627 fold
CCOCn1c(Cc2ccccc2)c(N(C)C)c(=O)[nH]c1=O [化合物10, 1-乙氧甲基-5-N,N-二甲基氨基-6-苄基尿嘧啶] | 3.6-627 fold
